Patent US20250188032A1, “NITROGEN-CONTAINING HETEROCYCLIC COMPOUNDS AND USES THEREOF” (BNH RESEARCH CO., LTD., priority 2022, published 2025)

What was measured:
[1] = test system: C57BL/6J mice barrel cortex (layer 4); experiment: Synaptic function test: TC EPSC potency and GABA/AMPA ratio in barrel cortex (layer 4); format: in vivo
Text: Eight weeks old male C57BL/6J mice were anesthetized with isoflurane during surgery. The mice were then be placed in a stereotaxic frame (RWD Life Science, China). The parietal and the frontal bones were exposed by a sagittal incision of the scalp at the midline from the level of the eyes to the occipital protuberance. A small burr hole was drilled after exposing the skull. The injection cannula was placed at the following coordinates: (Mouse: Bregma −3.30, lateral −1.50, and ventral 0.7 mm). Sterile saline solution (+/−a compound of the present disclosure) was perfused at a constant flow rate of 0.5 μL/h through the injection cannula using a mini-Os pump (DURECT Corporation ALZET Osmotic Pumps, CA). Implantation was done in layer 4 of the barrel cortex ipsilateral. To estimate extent of the diffusion of the injected compound in layer 4 barrel cortex during pump injection, methylene blue was first injected to stain the diffusion area. On average methylene blue diffused to […] away from the injection site (the total area of the barrel cortex region is about 1500 μm). Based on this analysis, the present inventors recorded from barrel cortex area.
2 mg of BnH12001 was dissolved in 800 ul of DMSO and prepared as a stock solution. For oral administration, BnH12001 DMSO stock:PEG400:Saline was mixed in a ratio of 5:55:40 and 200 μl/animal was administered. For the control group, a vehicle in which DMSO:PEG400:Saline was mixed in a 5:55:40 ratio was administered at 200 ul/animal. In the single drug administration test, the compound was administered once a day for about 11 to 12 days at a dose of 1 mg/kg. Dose response test was performed by administering the compound once a day for about 11 to 12 days at doses of 0.03, 0.1, 0.3, 1, 3, and 10 mg/kg. 5 mice were used for the compound administration group and the control group, respectively.
For TC or hippocampus slice preparation. 9 to 10 weeks-old male C57BL/6J mice were anesthetized with isoflurane. Then, the brain was rapidly cooled via transcardial perfusion with ice-cold sucrose-artificial cerebrospinal fluid (aCSF). The brain was removed and placed in ice-cold sucrose aCSF. Paracoronal slices were prepared at an angle of 50° relative to the midline on a ramp at an angle of 10°. Then, slices were incubated in aCSF at 35° C. for 30 minutes to recover. Slices were then incubated in aCSF at room temperature (23 to 25° C.) for 1 to 4 hours before being placed in the recording chamber for experiments. The standard aCSF contains saturated with 95% O2/5% CO2. The brain of the mouse was removed and cut into 400 μm at a 50° angle (mouse at a 55° angle) to attach the cut portion to the vibratome disc to be the bottom. Brain slice was incubated in 35° C. in aCSF solution for 30 minutes, or at RT in aCSF solution for 1 hour.
All electrophysiological experiments were conducted at 27 to 29° C. For electrophysiological experiments, electrodes with […] resistance were used and stimuli were applied to the ventral posteromedial nucleus (VPM) using a concentric bipolar electrode (FHC, Bowdoin, ME). The somatosensory cortex was identified by the presence of barrels under 4× magnification and differential interference contrast (DIC) optics, and by the ability to evoke short and constant latency field excitatory postsynaptic potentials (fEPSPs) by VPM stimulation. Whole-cell voltage-clamp recordings were made from stellate cells (SC) in layer IV of the somatosensory barrel cortex using infrared illumination and differential interference contrast (DIC) optics. The composition of whole cell recording solution is shown as follows:
Whole cell recordings were made using a multiclamp 700A (Molecular devices, Sunnyvale, CA) digitized at 10 kHz and filtered at 2 kHz. […]

293T cells = experiment: Cytotoxicity test (CCK-8 cell viability) in 293T cells; format: cell-based, human
Method: Human undifferentiated neuroblastoma cell line SH-SY5Y and human embryonic kidney cell line (HEK)-293T were purchased from Korean Cell Line Bank (Korea) and Takara (Japan), respectively. Cells were grown in HyClone Minimal Essential Medium (MEM) and Dulbecco's Modified Eagle Medium (DMEM), respectively, supplemented with 10% (v/v) fetal bovine serum (FBS), penicillin (100 U/mL), and streptomycin ([…]). Cells were maintained in a humidified atmosphere of 95% air and 5% CO2 at 37° C. Cells were passaged 10 times at maximum. Cells were dissociated using 0.05% trypsin-EDTA solution and the cells were seeded in new culture dishes for maintenance.
To examine the cytotoxicity of compounds described herein in human cell lines, SH-SY5Y and 293T cells were used. Approximately 8,000 cells (for 293T) and 15,000 cells (for SH-SY5Y) were plated per well of a 96-well plate (SPL Life Sciences Co., Ltd., Pocheon, Korea). After incubating at 37° C. for 24 hours in a humidified atmosphere containing 5% CO2, the culture medium was replaced by a series of concentrations of test compounds diluted in the corresponding culture medium. The time of co-incubation was 24 hours and six replicates were made for each measurement. Finally, 10 μL of CCK-8 reagent (Dojindo Laboratories, Rockville, MD) was added to each well, and after incubation at 37° C. for 3 minutes, the OD at 450 nm was measured using a multifunction microplate reader (Tecan Infinite M200 Pro). These measurements were compared to that of a control and expressed as a percentage of the control to calculate cell viability. The IC50 value was calculated using SPSS software. To do this, the absorbance of the blank wells with only growth medium is subtracted from the values or the wells with cells. The readout value of background (vehicle) was set as a 100% viability, and then the percent viability for each test solution was calculated.
Cell viability (%)=[(As-Ab)/(Ac-Ab)]×100
The data was presented as the mean value and standard error of the mean (S.E.M.). Statistical analysis was performed with the one-way ANOVA with Tukey's post hoc test (GraphPad Prism 5 software package, version 5.02, GraphPad Software Inc. USA). Significance was accepted at p<0.05.

[2] = Os pump, injected into layer 4 of barrel cortex, 3 μM, 2 weeks, 8-week-old C57BL/6J mice
[3] = oral, 1 mg/kg, 8-week-old C57BL/6J mice

Row | SMILES | Balance of excitation/inhibition (GABA/AMPA ratio) [1, 2] | Excitatory TC synaptic potency (TC potency) [1, 2] | Balance of excitation/inhibition (GABA/AMPA ratio) [1, 3] | TC synaptic potency in the sensory cortex [1, 3] | TC EPSC potency in the layer 4 barrel cortex ([1]; orally-applied, 3 μM) | Change in cell viability (293T cells; 0, 0.1, 1, 10, 100 μM, 293T) | Efficacy on TC synaptic potency compared among racemate and enantiomers [1, 3] | Cell viability test results (CCK) 10 uM (293T cells; 10 uM, 24 hours co-incubation, 293T cell line, % of control) | Cell viability test results (CCK) 100 uM (293T cells; 100 uM, 24 hours co-incubation, 293T cell line, % of control)
1 | CC1CCC(C(=O)O)CN1C(=O)Cc1ccc(F)cc1Cl (racemic) [BnH12001, 1-(2-(2-chloro-4-fluorophenyl)acetyl)-6-methylpiperidine-3-carboxylic acid] | maintained | significantly increased | maintaining the balance of excitation/inhibition | increase the TC synaptic potency | significantly augmented | no significant change in cell viability | – | – | –
2 | C[C@@H]1CC[C@H](C(=O)O)CN1C(=O)Cc1ccc(F)cc1Cl [BnH12001 enantiomer (3S,6R, 98%<), (3S,6R)-1-(2-(2-chloro-4-fluorophenyl)acetyl)-6-methylpiperidine-3-carboxylic acid] | – | – | maintaining the balance of excitation/inhibition | increase the TC synaptic potency | – | – | highest efficacy | 99%< | 95%<
